Measurements: ChEMBL document CHEMBL1201862, “PubChem BioAssay data set” (2004)
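Step 1: Grow cells in 96-well plates. Step 2: Expose to compound for 48 hours at 5 concentrations. Step 3: Interpolate endpoints linearly; if unreached, use highest concentration. Abbreviation: GI50, concentration required for 50% inhibition of growth.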 The source made the active and inactive calls. Cut-off read from the data, not from the text of the source: active = GI50 up to about 1.1 µM and inactive = higher.

Legend:
Experiment in all cases: NCI-60 cell line screen, 48 h
[1] = test system: UACC-62
[2] = test system: TK-10
[3] = test system: LXFL 529
[4] = test system: OVCAR-5
[5] = test system: CCRF-CEM
[6] = test system: HCT-116
[7] = test system: CAKI-1
[8] = test system: SNB-19
[9] = test system: KM-20L2
[10] = test system: 786-0
[11] = test system: U-251
[12] = test system: K562
[13] = test system: HL-60
[14] = test system: UO-31
[15] = test system: SNB-78
[16] = test system: HCC 2998
[17] = test system: NCI-H23
[18] = test system: ACHN
[19] = test system: HT-29
[20] = test system: M19-MEL
[21] = test system: SK-MEL-2
[22] = test system: DMS-273
[23] = test system: SF-539
[24] = test system: HCT-15
[25] = test system: OVCAR-8
[26] = test system: SW-620
[27] = test system: SK-MEL-28
[28] = test system: SF-268
[29] = test system: MOLT-4
[30] = test system: SR
[31] = test system: DMS-114
[32] = test system: OVCAR-3
[33] = test system: NCI-H460
[34] = test system: SF-295
[35] = test system: EKVX
[36] = test system: HOP-62
[37] = test system: COLO 205
[38] = test system: IGROV-1
[39] = test system: NCI-H226
[40] = test system: Malme-3M
[41] = test system: A549
[42] = test system: RPMI-8226
[43] = test system: SNB-75
[44] = test system: DLD-1
[45] = test system: SN12C
[46] = test system: A498
[47] = test system: KM12
[48] = test system: RXF 393
[49] = test system: UACC-257
[50] = test system: SK-MEL-5
[51] = test system: OVCAR-4
[52] = test system: M14
[53] = test system: SK-OV-3
[54] = test system: HOP-92
[55] = test system: NCI-H522

COC(=O)c1ccc(N/C=C(/C#N)c2ccsc2)cc1
GI50 [1]: 20.5 µM (inactive)
GI50 [2]: 16.8 µM (inactive)
GI50 [3]: 12.8 µM (inactive)
GI50 [4]: > 100 µM (inactive)
GI50 [5]: > 100 µM (inactive)
GI50 [6]: 8.57 µM (inactive)
GI50 [7]: 15.1 µM (inactive)
GI50 [8]: 12.2 µM (inactive)
GI50 [9]: 12 µM (inactive)
GI50 [10]: 11.1 µM (inactive)
GI50 [11]: 6.92 µM (inactive)
GI50 [12]: > 100 µM (inactive)
GI50 [13]: > 100 µM (inactive)
GI50 [14]: 14.4 µM (inactive)
GI50 [15]: 15 µM (inactive)
GI50 [16]: 18.4 µM (inactive)
GI50 [17]: 10.7 µM (inactive)
GI50 [18]: 5.97 µM (inactive)
GI50 [19]: 11.1 µM (inactive)
GI50 [20]: 34 µM (inactive)
GI50 [21]: 22.2 µM (inactive)
GI50 [22]: 14.8 µM (inactive)
GI50 [23]: 15.9 µM (inactive)
GI50 [24]: 50.9 µM
GI50 [25]: 6.61 µM (inactive)
GI50 [26]: 21.3 µM (inactive)
GI50 [27]: 15.6 µM (inactive)
GI50 [28]: 10.9 µM (inactive)
GI50 [29]: > 100 µM (inactive)
GI50 [30]: > 100 µM (inactive)
GI50 [31]: 15 µM (inactive)
GI50 [32]: 9.66 µM (inactive)
GI50 [33]: 32.6 µM (inactive)
GI50 [34]: 7.18 µM (inactive)
GI50 [35]: 15.9 µM (inactive)
GI50 [36]: 13.3 µM (inactive)
GI50 [37]: 67.1 µM (inactive)
GI50 [38]: 27.1 µM (inactive)
GI50 [39]: 20.7 µM (inactive)
GI50 [40]: 16.8 µM (inactive)
GI50 [41]: 15.4 µM (inactive)
GI50 [42]: 20.7 µM (inactive)
GI50 [43]: 6.68 µM (inactive)
GI50 [44]: 13 µM (inactive)
GI50 [45]: > 10 µM (inactive)
GI50 [46]: 4.06 µM (inactive)
GI50 [47]: 12.9 µM (inactive)
GI50 [48]: 11.4 µM (inactive)
GI50 [49]: 32.6 µM (inactive)

CC(C)c1cccc(C(C)C)c1NC(=O)C(=O)CC(=O)CC(c1ccccc1)c1c(O)oc2ccccc2c1=O (stereo unspecified)
GI50 [1]: > 100 µM (inactive)
GI50 [2]: > 100 µM (inactive)
GI50 [4]: > 100 µM (inactive)
GI50 [50]: > 100 µM (inactive)
GI50 [5]: > 100 µM (inactive)
GI50 [6]: > 100 µM (inactive)
GI50 [51]: > 100 µM (inactive)
GI50 [7]: > 100 µM (inactive)
GI50 [8]: > 100 µM (inactive)
GI50 [9]: > 100 µM (inactive)
GI50 [10]: > 100 µM (inactive)
GI50 [52]: > 100 µM (inactive)
GI50 [12]: > 100 µM (inactive)
GI50 [13]: > 100 µM (inactive)
GI50 [53]: > 100 µM (inactive)
GI50 [14]: > 100 µM (inactive)
GI50 [16]: > 100 µM (inactive)
GI50 [17]: > 100 µM (inactive)
GI50 [18]: > 100 µM (inactive)
GI50 [19]: > 100 µM (inactive)
GI50 [21]: > 100 µM (inactive)
GI50 [23]: > 100 µM (inactive)
GI50 [25]: > 100 µM (inactive)
GI50 [26]: > 100 µM (inactive)
GI50 [27]: > 100 µM (inactive)
GI50 [28]: > 100 µM (inactive)
GI50 [29]: > 100 µM (inactive)
GI50 [30]: > 100 µM (inactive)
GI50 [54]: > 100 µM (inactive)
GI50 [31]: > 100 µM (inactive)
GI50 [55]: > 100 µM (inactive)
GI50 [32]: > 100 µM (inactive)
GI50 [33]: > 100 µM (inactive)
GI50 [34]: > 100 µM (inactive)
GI50 [35]: > 100 µM (inactive)
GI50 [36]: > 100 µM (inactive)
GI50 [37]: > 100 µM (inactive)
GI50 [38]: > 100 µM (inactive)
GI50 [40]: > 100 µM (inactive)
GI50 [41]: > 100 µM (inactive)
GI50 [42]: > 100 µM (inactive)
GI50 [44]: > 100 µM (inactive)
GI50 [45]: > 100 µM (inactive)
GI50 [46]: > 100 µM (inactive)
GI50 [47]: > 100 µM (inactive)
GI50 [48]: > 100 µM (inactive)
GI50 [49]: > 100 µM (inactive)
